The values below are quoted from earlier work in article PMC3222680 (PLoS ONE, 2011).

In this data set the test system is α1 β GlyRs with cysteine mutations in the M2–M3 loop of the β subunit. As to conditions: cysteine-substituted α1 β GlyRs (β subunit M2–M3 loop) ref 22; cited from earlier work.

Take `C[N+](C)(C)CCSS(C)(=O)=O` [MTSET, 2-trimethylammoniumethylmethane thiosulfonate]: the “channel function in response to MTSET treatment” value was “did not change”.
